This series can be described thus: method code SF, from DOI: 10.1016/0360-3016(89)90899-7, PMID: 2703405. Particulars: pH 7.4.
For orientation: logD means the decadic logarithm of the distribution of all forms, ionised or not, between an organic phase and buffer at a given pH. A high value points to a more lipophilic compound. On to `CC(=O)CC(=O)Nc1n[n+]([O-])c2ccccc2[n+]1[O-]`, for which the logD is -1.4.

`[O-][n+]1cn[n+]([O-])c2ccccc21` displayed a logD of -0.8.

`CC(=O)Nc1n[n+]([O-])c2ccccc2[n+]1[O-]` showed a logD of -0.6.

With `Nc1n[n+]([O-])c2cc(OCC(O)CO)ccc2[n+]1[O-]` (stereo unspecified), the logD was -1.1.

In turn, `Nc1n[n+]([O-])c2ccc(Cl)cc2[n+]1[O-]` had a logD of 0.41.

With `COc1n[n+]([O-])c2ccccc2[n+]1[O-]`, the log distribution coefficient (logD) was -0.3.

Compound `COc1ccc2c(c1)[n+]([O-])c(N)n[n+]2[O-]` registered a logD of 0.

In turn, `CC(=O)Nc1n[n+]([O-])c2cc(C)ccc2[n+]1[O-]` displayed a logD of -0.4.

`Nc1n[n+]([O-])c2ccccc2[n+]1[O-]`: the logD is -0.3.

The compound `C=CCOc1ccc2c(c1)[n+]([O-])nc(N)[n+]2[O-]` came in with a logD of 0.76.

Take `Cc1ccc2c(c1)[n+]([O-])nc(N)[n+]2[O-]`: the logD came to 0.2.

The values above are taken from the SangsterLogP compilation.
